Source: paper PMC5520057, “Modulation of nongenomic activation of PI3K signalling by tetramerization of N-terminally-cleaved RXRα” (Nature Communications, 2017)
Numbering of substitutions follows the chain as printed. Several values for one entry are separate records, joined by “and”; a condition that tells them apart may be missing. Equal entries are not always repeated.

Columns and labels:
Myc-RXRα-LBD (human) = assay: cross-linking; cells (HepG2, HEK293T, MCF-7) transfected for 24 h, treated with 9-cis-RA (10^-7 M) and/or K-80003 (5 x 10^-6 M) for 6 h; lysates or fractions incubated with 1 mM BS3, SDS-PAGE and western blotting
[1] = test system: p85α-BCR / RXRα-LBD interaction; assay: coIP, p85α-BCR with RXRα-LBD; assay type: cell-based; settings: 9-cis-RA (10^−7 M), one of two similar experiments
Description: (§1) For coIP assay, HEK293T cells grown in 10 cm dishes were transfected with various plasmids. Cells were lysed in 1 ml of lysis buffer (20 mM Tris (pH 7.5), 150 mM NaCl, 1% Triton X-100, 1 mM EDTA, 30 mM NaF, 2 mM sodium pyrophosphate) with a cocktail of proteinase inhibitors (Roche). Lysates were incubated with the appropriate antibody for 12 h at 4 °C and subsequently incubated with protein A-Sepharose beads for 1 h. The immunoprecipitates were collected and washed three times with lysis buffer. The protein–antibody complexes recovered on beads were subjected to immunoblotting using appropriate antibodies after separation by SDS-PAGE. Input represents 5% of cell lysates used for coIP assays.

[2] = test system: p85α / tRXRα/F313A interaction; assay: coIP, p85α with tRXRα/F313A; assay type: cell-based; settings: HEK293T cells; 9-cis-RA (10^−7 M) for 1 h; coIP anti-Myc
Description: (§4) For coIP assay[29], HEK293T cells grown in 10 cm dishes were transfected with various plasmids. Cells were lysed in 1 ml of lysis buffer (20 mM Tris (pH 7.5), 150 mM NaCl, 1% Triton X-100, 1 mM EDTA, 30 mM NaF, 2 mM sodium pyrophosphate) with a cocktail of proteinase inhibitors (Roche). Lysates were incubated with the appropriate antibody for 12 h at 4 °C and subsequently incubated with protein A-Sepharose beads for 1 h. The immunoprecipitates were collected and washed three times with lysis buffer. The protein–antibody complexes recovered on beads were subjected to immunoblotting using appropriate antibodies after separation by SDS-PAGE. Input represents 5% of cell lysates used for coIP assays.

[3] = test system: RXRα-A/B / RXRα-LBD/W305Q interaction; assay: coIP, N/C interaction RXRα-A/B with RXRα-LBD/W305Q; assay type: cell-based; settings: HEK293T cells; 9-cis-RA (10^−7 M)
Description: as §4

[4] = test system: RXRα-A/B / RXRα-LBD interaction; assay: coIP, N/C interaction RXRα-A/B with RXRα-LBD; assay type: cell-based; settings: HepG2 cells, coIP with anti-HA antibody; one of two similar experiments
[5] = test system: p85α-ΔiSH2 / tRXRα interaction; assay: p85α-ΔiSH2 interaction with tRXRα; assay type: cell-based
Description: (§2) Cell lysates were then prepared and incubated with bis[sulfosuccinimidyl] suberate (BS3, Pierce) dissolved in dimethyl sulfoxide to a final concentration of 1 mM. The reactions were stopped with protein gel loading buffer. Samples were resolved by SDS/PAGE in 8% acrylamide gels and protein bands were visualized by western blotting.

RXRα-LBD/R316E = assay: Non-denaturing gel electrophoresis, R316E mutant; assay type: biochemical, human; settings: 9-cis-RA (0.5 μM) or K-80003 (20 μM), 3 h at 4 °C
Description: The human RXRα LBD (residues Thr223 to Thr462) cloned as an N-terminal histidine-tagged fusion protein in pET15b expression vector was expressed in Escherichia coli BL21 strain (Stratagene). After sonication, cell extract was incubated with the His60 Ni Superflow resin, and His-tagged RXRα-LBD-resin complexes were washed, eluted and concentrated to 5 mg ml^−1 for subsequent trails. For crystallization experiment, bovine thrombin (Sigma) was used to cleave the His tag from the purified His-tagged RXRα-LBD. The resulting His tag was removed on the Resource-Q column (GE) using 0.1–1 M NaCl gradient and the Tris-Cl pH 8 buffer. RXRα-LDB was further purified using gel filtration on a Superdex 200 2660 column (GE) pre-equilibrated with the 75 mM NaCl, 20 mM Tris-Cl buffer (pH 8).

[6] = test system: p85α-BCR / RXRα-LBD/W305Q interaction; settings: HEK293T cells; with or without 9-cis-RA (10^−7 M)
Description: as §1

[7] = test system: p85α-BCR / tRXRα interaction; assay: coIP, p85α-BCR with tRXRα; assay type: cell-based; settings: 9-cis-RA (10^−7 M), one of two similar experiments
Description: as §4

tRXRα/F313A = assay: BS3 crosslinking, tRXRα/F313A; assay type: cell-based; settings: MCF-7 cells, 9-cis-RA (10^−7 M) or K-80003 (5 × 10^−6 M) for 6 h
Description: as §2

tRXRα/R316E [8] = assay: BS3 crosslinking, tRXRα/R316E; assay type: cell-based; settings: MCF-7 cells, 9-cis-RA (10^−7 M) or K-80003 (5 × 10^−6 M) for 6 h
Description: as §2

RXRα-LBD = assay: BS3 crosslinking, transfected RXRα-LBD; assay type: cell-based; settings: HepG2 cells; 9-cis-RA (10^−7 M) or K-80003 (5 × 10^−6 M) for 6 h; BS3 1 mM; western blotting
Description: as §2

RXRα [9] = test system: RXRα; parameters: method as in PMID 10970886, PMID 9811539; settings: cited from earlier work
From the text: In addition to acting as heterodimeric partners of some nuclear receptors, RXRα can form homodimers[18] that trigger specific signalling pathways. A unique property of RXRα is an auto-repressive mechanism involving homotetramerization, in which a ‘dimer-of-dimers’ pack in a bottom-to-bottom manner, with H12 from each monomer invading (and invaded by) a neighbouring domain across the tetramer interface. This pairwise ‘exchange of arms’ enables each monomer to bind to and occlude the coregulator-binding groove of its neighbour. Some molecules hav ...

[10] = test system: p85α / tRXRα/R316E interaction; assay: coIP, p85α with tRXRα/R316E; assay type: cell-based; settings: HEK293T cells; TNFα (10 ng ml^−1) or 9-cis-RA (10^−7 M) for 1 h; coIP anti-Myc
Description: as §4

tRXRα = assay: Subcellular localization of tRXRα, immunostaining; assay type: cell-based; settings: MCF-7 cells cotransfected with p85α; TNFα (10 ng ml^−1) for 30 min; confocal microscopy
Description: (§3) Cells mounted on glass slides or tumour tissue frozen sections (5-μm-thick) were washed with PBS and fixed in 4% paraformaldehyde (PFA) for 15 min and permeabilized with PBS containing 0.1% Triton X-100 for 15 min. Fixed cells or tumour tissues were blocked with 5 mg ml^−1 BSA in PBS for 30 min at room temperature, followed with incubation with primary antibodies for 3 h and secondary antibodies at room temperature for 1 h and co-stained with 4′6′-diamidino-2-phenylindole (DAPI) to visualize nuclei. The images were taken under an LSM-510 confocal laser scanning microscope system (Carl Zeiss).

RXRα [11] = assay: Subcellular localization of RXRα, immunostaining; assay type: cell-based; settings: MCF-7 cells; TNFα (10 ng ml^−1) for 30 min; confocal microscopy
Description: as §3

tRXRα/R316E [12] = assay: Subcellular localization of tRXRα/R316E, immunostaining; assay type: cell-based; settings: HEK293T cells; TNFα (10 ng ml^−1) for 30 min; confocal microscopy
Description: as §3

p85α / tRXRα interaction = assay: coIP, p85α with tRXRα; assay type: cell-based; settings: HEK293T cells; TNFα (10 ng ml^−1) for 1 h; coIP anti-Myc
Description: as §4

[13] = target: the molecule itself; assay: cross-linking; cells (HepG2, HEK293T, MCF-7) transfected for 24 h, treated with 9-cis-RA (10^-7 M) and/or K-80003 (5 x 10^-6 M) for 6 h; lysates or fractions incubated with 1 mM BS3, SDS-PAGE and western blotting
[14] = target: the molecule itself; assay: crystal structure; RXRα-LBD (0.35 mM) cocrystallized with K-80003, 2.6 Å; tetramer (dimer of dimers) with six K-80003 bound
[15] = target: the molecule itself; assay: native gel or EMSA; purified RXRα-LBD or mutant (0.2 μg/μl) incubated with DMSO, 9-cis-RA (0.5 μM) and/or K-80003 (20 μM) for 3 h at 4 °C; 8% non-denaturing PAGE, Coomassie staining

Myc-RXRα-LBD (domain or fragment)
stoichiometry N (Myc-RXRα-LBD (human)): 2 and 4

CC1=C(/C=C/C(C)=C\C=C\C(C)=C\C(=O)O)C(C)(C)CCC1 [9-cis-RA, 9-cis-retinoic acid]
effect on p85α-BCR interaction with RXRα-LBD [1]: enhancing effect of 9-cis-RA on p85α-BCR interaction
interaction of tRXRα/F313A with p85α [2]: constitutive and 9-cis-RA-independent interaction with p85α
effect on RXRα-A/B / RXRα-LBD/W305Q interaction [3]: could still bind to the RXRα-A/B protein in a 9-cis-RA sensitive manner similar to the wild-type RXRα-LBD
effect on RXRα-A/B / RXRα-LBD interaction [4]: inhibited by 9-cis-RA in a dose-dependent manner
tRXRα interaction with p85α-ΔiSH2 with cotransfected RXRα-A/B ([5]; HEK293T cells, 9-cis-RA (10^−7 M) for 6 h, coIP anti-Myc): inhibited 9-cis-RA-induced interaction of tRXRα with p85α-ΔiSH2
effect on oligomeric state of RXRα-LBD/R316E (RXRα-LBD/R316E): exhibited mainly as a tetramer independent of the presence of either 9-cis-RA or K-80003
binding of RXRα-LBD/W305Q with p85α-BCR [6]: impaired the binding of RXRα-LBD with p85α-BCR either in the presence or absence of 9-cis-RA
effect on p85α-BCR interaction with tRXRα [7]: enhancing effect of 9-cis-RA on p85α-BCR interaction
oligomeric state of tRXRα/F313A (tRXRα/F313A): strong tetrameric species of tRXRα/R316E but not tRXRα/F313A independent of the presence of 9-cis-RA or K-80003
oligomeric state of tRXRα/R316E (tRXRα/R316E [8]): strong tetrameric species of tRXRα/R316E but not tRXRα/F313A independent of the presence of 9-cis-RA or K-80003
crosslinked RXRα-LBD species (RXRα-LBD): only monomer and homodimer
effect on homotetramers (RXRα [9]): dissociation of homotetramers into homodimers
interaction of tRXRα/R316E with p85α [10]: could not bind to p85α either in the absence or presence of TNFα or 9-cis-RA

O=C(CCCCCCC(=O)ON1C(=O)CC(S(=O)(=O)O)C1=O)ON1C(=O)CC(S(=O)(=O)O)C1=O (stereo not shown) [BS3, bis[sulfosuccinimidyl] suberate]
9-cis-RA-induced tRXRα interaction with p85α-ΔiSH2 ([5]; HepG2 cells, K-80003 and/or 9-cis-RA, then BS3 crosslinking, western blotting): potently inhibited

TNFα
tRXRα found in the cytoplasm of cells (tRXRα): > 65%
effect on nuclear localization of RXRα (RXRα [11]): no effect on the nuclear localization of RXRα
colocalization of tRXRα/R316E with p85α (tRXRα/R316E [12]): lack of colocalization of the tRXRα/R316E mutant with p85α in the absence or presence of TNFα
interaction of tRXRα with full-length p85α (p85α / tRXRα interaction): tRXRα interacted with the full-length p85α in the presence of TNFα
interaction of tRXRα/R316E with p85α [10]: could not bind to p85α either in the absence or presence of TNFα or 9-cis-RA

B1: Myc-tRXRα (domain or fragment, human, UniProt P19793 81-462, looked up)
chain: TTPTLGFSTGSPQLSSPMNPVSSSEDIKPPLGLNGVLKVPAHPSGNMASFTKHICAICGDRSSGKHYGVYSCEGCKGFFKRTVRKDLTYTCRDNKDCLIDKRQRNRCQYCRYQKCLAMGMKREAVQEERQRGKDRNENEVESTSSANEDMPVERILEAELAVEPKTETYVEANMGLNPSSPNDPVTNICQAADKQLFTLVEWAKRIPHFSELPLDDQVILLRAGWNELLIASFSHRSIAVKDGILLATGLHVHRNSAHSAGVGAIFDRVLTELVSKMRDMQMDKTELGCLRAIVLFNPDSKGLSNPAEVEALREKVYASLEAYCKHKYPEQPGRFAKLLLRLPALRSIGLKCLEHLFFFKLIGDTPIDTFLMEMLEAPHQMT
notes: retinoid X receptor alpha lacking the N-terminal 80 amino acids (deletion of 60 plus an additional 20 amino acids); also called truncated RXRα; N-terminally-cleaved RXRα; source: HEK293T, HepG2, transfected, in lysate
stoichiometry N [13]: 4

B2: Myc-tRXRα/R316E (domain or fragment, human, UniProt P19793 81-462, looked up)
chain: B1 chain with R236E
notes: retinoid X receptor alpha lacking the N-terminal 80 amino acids; source: MCF-7, HEK293T, transfected, in lysate
stoichiometry N [13]: 4

B3: RXRα-LBD (His tag cleaved, for crystallization) (domain or fragment, human, UniProt P19793 223-462, looked up)
chain: TSSANEDMPVERILEAELAVEPKTETYVEANMGLNPSSPNDPVTNICQAADKQLFTLVEWAKRIPHFSELPLDDQVILLRAGWNELLIASFSHRSIAVKDGILLATGLHVHRNSAHSAGVGAIFDRVLTELVSKMRDMQMDKTELGCLRAIVLFNPDSKGLSNPAEVEALREKVYASLEAYCKHKYPEQPGRFAKLLLRLPALRSIGLKCLEHLFFFKLIGDTPIDTFLMEMLEAPHQMT
stoichiometry N [14]: 4

B4: His-RXRα-LBD (domain or fragment, human, UniProt P19793 223-462, looked up)
chain: B3 chain
stoichiometry N [15]: 2 and 4

B5: His-RXRα-LBD/R316E (domain or fragment, human, UniProt P19793 223-462, looked up)
chain: B3 chain with R94E
notes: source: bacteria expressed, purified
stoichiometry N [15]: 4
